Laboratory results: PubChem BioAssay AID504861 (Broad Institute, 2011)
The source made the active and inactive calls.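 How the source made its calls: active means compounds lowering cell viability signal with fitted half-maximal concentration at most ten times their highest tested concentration; inconclusive means flat fit with 30 to 70% signal loss, or poor fit; inactive means the rest.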

These molecules were tested on HEK293T viability, CellTiter-Glo ATP luminescence, 48 h (assay: HEK293T cell viability reduction, dose response, cytotoxicity control for LMP1 NF-kB inhibitor project, CellTiter-Glo luminescence, cherry-picks (AID 504861)).

SMILES	AC50
O=C(N/N=C/c1ccc(O)cc1O)c1ccc(CN2C(=O)c3cccc4cccc2c34)cc1	9.41 µM
CCCCC(=O)NC(c1ccc(OC)cc1)c1ccc2cccnc2c1O (configuration not stated)	16.2 µM
NC(=S)NN=Cc1nccc2c(C(F)(F)C(F)(F)C(F)(F)F)cccc12	1.52 µM
CCc1nc(SCC(=O)c2ccc3c(c2)OCCO3)c2ccccc2n1	> 26 µM (inactive)
CC(=O)NC(c1ccc(Cl)cc1)c1ccc2cccnc2c1O (configuration not stated)	1.16 µM
COc1ccccc1NC(=O)c1c(Nc2ccccc2C)sc(C(=O)Nc2cccc(Cl)c2)c1N	4.52 µM
CCOc1ccc(C(=O)Nc2cc(C)ccn2)cc1	13.8 µM
CC(=NNC(=S)Nc1ccccc1Cl)c1ccccn1	0.922 µM
c1ccc(-c2nc(-c3ccccn3)no2)cc1	7.87 µM
CCN(CC)CCC(=O)N1C/C(=C/c2ccccc2)C(=O)/C(=C\c2ccccc2)C1	3.88 µM
O=C(N/N=C/c1cc2c3c(c1O)CCCN3CCC2)c1ccccc1O	4.17 µM
OC1(c2cccc(C(F)(F)F)c2)CCN(c2ncnc3c2[nH]c2ccc(F)cc23)CC1	17.8 µM
O=C1c2cccc3c([N+](=O)[O-])ccc(c23)C(=O)N1c1ccccn1	4.11 µM
COc1cccc(/C=N/Nc2nccnc2Cl)c1O	3.79 µM
CCCCC(=O)NC(c1ccc(OC)c(OC)c1)c1ccc2cccnc2c1O (configuration not stated)	4.63 µM
CCc1ccc(Nc2n[n+](-c3ccccc3)c(-c3c(Cl)cccc3Cl)s2)cc1	11.2 µM
CCCC(=O)NC(c1cccc([N+](=O)[O-])c1)c1ccc2cccnc2c1O (configuration not stated)	3.59 µM
